Source: patent US11311523B2, “Pyridinone compound and use thereof” (KYUSHU UNIVERSITY, NATIONAL UNIVERSITY CORPORATION, priority 2015, dated 2022)

What was measured:
[1] = target: T1, DHR-2 domain of DOCK1 (Homo sapiens, UniProt Q14185); assay: in vitro GEF assay (Bodipy-FL-GTP loading of Rac); assay type: biochemical
T1 construct: Polypeptide fragments that correspond to the DHR-2 domain of DOCK1, DOCK2, or DOCK5; Histidine-SUMO (N); made in house; host or cells: E. coli Arctic express (DE3)
T1 sequence (Q14185 1207-1617 limits assumed): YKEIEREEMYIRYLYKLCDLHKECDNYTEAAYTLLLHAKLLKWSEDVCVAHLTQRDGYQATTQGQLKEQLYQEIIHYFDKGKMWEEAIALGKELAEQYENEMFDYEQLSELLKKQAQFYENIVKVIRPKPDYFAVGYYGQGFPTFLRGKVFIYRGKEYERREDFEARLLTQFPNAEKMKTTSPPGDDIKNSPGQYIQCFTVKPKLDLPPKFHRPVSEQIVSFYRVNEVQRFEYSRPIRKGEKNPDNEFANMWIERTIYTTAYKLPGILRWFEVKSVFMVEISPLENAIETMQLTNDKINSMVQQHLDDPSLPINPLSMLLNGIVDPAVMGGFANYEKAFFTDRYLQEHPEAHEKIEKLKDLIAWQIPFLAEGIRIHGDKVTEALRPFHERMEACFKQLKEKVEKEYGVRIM
Excerpt: (§1) Pharmacological Test 1 (In Vitro GEF Assay)
(§2) DOCK1, DOCK2, and DOCK5, which are DOCK-A subfamily members, catalyze the GTP-GDP exchange reaction for Rac via the DHR-2 domain to activate Rac.
(§3) The in vitro GEF assay referred to in this specification used a labeled GTP (Bodipy-FL-GTP, Invitrogen), whose fluorescence intensity increases when bound to Rac.
(§4) Polypeptide fragments that correspond to the DHR-2 domain of DOCK1, DOCK2, or DOCK5 were expressed in E. coli Arctic express (DE3) cells as N-terminal Histidine-SUMO tag-fused recombinant proteins and purified by affinity column chromatography on nickel-NTA columns.
(§5) Rac was expressed in E. coli BL21 (DE3) cells as an N-terminal GST tag-fused recombinant protein and purified by affinity column chromatography on glutathione-Sepharose columns.
(§6) Subsequently, a reaction solution A containing 20 mM of MES-NaOH, 150 mM of NaCl, 10 mM of MgCl2, and 20 μM of GDP, and having an adjusted pH of 7.0 was incubated at room temperature for 30 minutes while being protected from light in the presence of each of the polypeptide fragments (DHR-2 domains) prepared above and each pyridinone compound or CPYPP dissolved at a predetermined concentration in DMSO or DMSO alone (control) to thus prepare GEF pretreated products. In all of the samples, the final DMSO concentration was adjusted to 3%.
(§7) Thereafter, 15 μM of Rac prepared above was added to the reaction solution A and directly allowed to stand on ice for 30 minutes to form a GDP-Rac complex.
(§8) Bodipy-FL-GTP was added to 100 μL of the reaction solution A containing the thus prepared GDP-Rac complex to a concentration of 3.6 μM, followed by equilibration at 30° C. for 2 minutes. After equilibration, 50 μL of the pretreated GEF was added for reaction at 30° C.
(§9) Changes in fluorescence intensity of Bodipy-FL-GTP were monitored during the reaction using an XS-N (Molecular Devices) or an Enspire spectrofluorometer (Perkin Elmer) (excitation wavelength: 488 nm, emission wavelength: 514 nm). The measured values were corrected so that the fluorescence intensity at the time that the reaction was initiated (0 seconds) was 0.
(§10) Then, an approximate curve (hyperbola) was obtained by plotting the calculated correction values on the y axis and the time (t) on the x axis using GraphPad Prism5 (GraphPad software), and the slope at t=0 to 10 seconds was considered to be an initial velocity of guanine nucleotide exchange reaction. The IC50 value was calculated taking the initial reaction velocity of the control, to which only a solvent (DMSO) was added, as 100%.

[2] = target: T2, DHR-2 domain of DOCK2 (Homo sapiens, UniProt Q92608); assay: in vitro GEF assay (Bodipy-FL-GTP loading of Rac); assay type: biochemical; details: FIG. 11
T2 construct: Polypeptide fragments that correspond to the DHR-2 domain of DOCK1, DOCK2, or DOCK5; Histidine-SUMO (N); made in house; host or cells: E. coli Arctic express (DE3)
T2 sequence (Q92608 1211-1622 limits assumed): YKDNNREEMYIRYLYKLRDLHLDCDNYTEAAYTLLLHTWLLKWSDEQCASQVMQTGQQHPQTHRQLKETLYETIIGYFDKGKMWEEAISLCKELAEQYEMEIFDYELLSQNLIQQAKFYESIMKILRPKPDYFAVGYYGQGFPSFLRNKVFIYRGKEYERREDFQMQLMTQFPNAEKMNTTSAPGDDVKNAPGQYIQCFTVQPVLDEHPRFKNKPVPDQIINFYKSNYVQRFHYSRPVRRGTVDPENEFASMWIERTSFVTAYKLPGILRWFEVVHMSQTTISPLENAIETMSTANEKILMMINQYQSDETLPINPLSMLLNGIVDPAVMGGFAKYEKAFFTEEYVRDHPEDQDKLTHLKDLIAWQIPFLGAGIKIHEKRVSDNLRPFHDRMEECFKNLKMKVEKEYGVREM
Excerpt: as §1, §2, §3, §4, §5, §6, §7, §8, §9, §10

[3] = target: T3, DHR-2 domain of DOCK5 (Homo sapiens, UniProt Q9H7D0); assay: in vitro GEF assay (Bodipy-FL-GTP loading of Rac); assay type: biochemical; details: FIG. 11
T3 construct: Polypeptide fragments that correspond to the DHR-2 domain of DOCK1, DOCK2, or DOCK5; Histidine-SUMO (N); made in house; host or cells: E. coli Arctic express (DE3)
T3 sequence (Q9H7D0 1231-1642 limits assumed): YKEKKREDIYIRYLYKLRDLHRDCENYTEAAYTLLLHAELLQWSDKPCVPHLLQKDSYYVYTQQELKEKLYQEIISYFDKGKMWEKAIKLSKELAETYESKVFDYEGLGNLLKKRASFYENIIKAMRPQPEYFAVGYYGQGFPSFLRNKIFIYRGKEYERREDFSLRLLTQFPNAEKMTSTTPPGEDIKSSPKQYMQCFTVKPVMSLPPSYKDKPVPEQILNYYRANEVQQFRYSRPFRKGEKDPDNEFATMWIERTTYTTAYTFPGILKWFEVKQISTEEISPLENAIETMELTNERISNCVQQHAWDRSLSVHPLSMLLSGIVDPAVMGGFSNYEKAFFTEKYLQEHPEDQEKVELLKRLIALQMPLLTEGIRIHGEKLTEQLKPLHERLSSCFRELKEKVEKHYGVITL
Excerpt: as §1, §2, §3, §4, §5, §6, §7, §8, §9, §10

[4] = system: primary mouse embryonic fibroblasts (MEFs); assay: inhibition of ruffle formation after PDGF stimulation; assay type: cell-based; details: 1 hour pretreatment
Excerpt: Pharmacological Test 4 (Experiment on Inhibition of Ruffle Formation in Primary Mouse Embryonic Fibroblasts)
As disclosed in NPL 2, stimulation of primary mouse embryonic fibroblasts (MEFs) with a growth factor, such as PDGF, induces actin cytoskeletal remodeling, leading to the formation of two types of characteristic cellular membrane structures, peripheral ruffles and dorsal ruffles.
The peripheral ruffle and dorsal ruffle formation depends on Rac activation and requires the functions of DOCK1 and DOCK5. Importantly, it is known that the peripheral ruffle formation requires the functions of both DOCK1 and DOCK5 while the dorsal ruffle formation requires the function of DOCK1.
Therefore, the use of various pyridinone compounds in this assay system enables cell-level verification of DOCK1 selectivity.
Wild-type MEFs or MEFs from DOCK1-deficient (D1KO) mouse (obtained by the method disclosed in NPL 2) were suspended in DMEM (with 10% FBS) to a concentration of 2×10^4 cells/mL, and 150 μL of the resulting product was seeded on the glass portion of fibronectin-coated glass-bottom culture dishes.
After 36-hour culture at 37° C., the medium was changed to DMEM (serum free) containing 0.1% BSA, and 12-hour culture was performed to allow the cells to be serum-starved. Subsequently, the medium was changed to 100 μL of DMEM (serum free) containing DMSO in which each pyridinone compound or CPYPP was dissolved at a predetermined concentration, followed by pretreatment for 1 hour. A control was prepared using a culture medium to which DMSO was added alone. In all of the experiments, the final concentration of DMSO was adjusted to 0.2%.
Thereafter, 100 μL of DMEM that was warmed beforehand to 37° C. (serum free, containing 60 ng/mL of PDGF) was added to the above pretreated cells to stimulate the cells, followed by incubation at 37° C. for 7 minutes and further incubation at room temperature for 10 minutes in 150 μL of 4% paraformaldehyde solution to fix the cells. Then, PBS (containing 0.2% Triton X-100) was added to the fixed cells, and a 5-min incubation at room temperature was performed to permeabilize the cellular membranes. Thereafter, the cells were blocked with BSA, and the actin cytoskeleton was stained with Alexa Fluor 546-labeled phalloidin. Using a Zeiss LSM510 meta confocal laser scanning microscope, the number of cells in which peripheral ruffles and dorsal ruffles were formed was observed and counted.

[5] = system: mouse lung carcinoma cell line (3LL); assay: cellular invasion inhibition assay (Matrigel chamber); assay type: cell-based; details: 3LL cells, 22 hours, compared to DMSO
Method: Pharmacological Test 2 (Cellular Invasion Inhibition Assay)
Three hundred microliters of a suspension of a mouse lung carcinoma cell line (3LL), a human fibrosarcoma cell line (HT-1080), or a human colon cancer cell line (DLD-1) in DMEM (serum free) was placed in the upper chamber with Matrigel (BD Biosciences) equilibrated with DMEM (serum free) for 120 minutes, while 500 μL of DMEM (with 10% FCS) was placed in the lower chamber. Each pyridinone compound or CPYPP dissolved at a predetermined concentration in DMSO was added to the culture media in both the upper and lower chambers. As a control, DMSO alone was added to the media. In all of the experiments, the final DMSO concentration was adjusted to 0.2%.
After the resulting products were cultured at 37° C. under 5% CO2 for 22 hours, the chambers were removed, and the culture media were removed. […] After staining, the inserts were cut out with a blade to prepare slides, and the cells were counted under an optical microscope.
The results were evaluated based on percent cell invasion (%: Invasion) and percent inhibition (%: inhibition). The percent cell invasion was obtained by converting the number of invading cells under each condition to percentage, taking the number of invading cells in the control, to which DMSO was added alone, as 100%; and the percent inhibition was obtained by deducting the percent cell invasion from 100.

O=C1NN(c2ccccc2)C(=O)C1=CC=Cc1ccccc1Cl [CPYPP, reference compound]
IC50 ([1]; FIG. 11): 20 µM | selectivity of GEF inhibition to DOCK1 versus DOCK2 and DOCK5 ([1]; from IC50 values for DOCK1, DOCK2, DOCK5): no selectivity | IC50 [2]: 39 µM | IC50 [3]: 14.8 µM | dorsal ruffle formation [4]: inhibited both peripheral ruffle formation and dorsal ruffle formation | peripheral ruffle formation [4]: inhibited both peripheral ruffle formation and dorsal ruffle formation

Cc1cc(C(=O)Cn2cc(S(=O)(=O)N3CCCC3)ccc2=O)c(C)n1Cc1ccc(F)cc1 [Compound T-070444, 1-(2-(1-(4-fluorobenzyl)-2,5-dimethyl-1H-pyrrol-3-yl)-2-oxoethyl)-5-(pyrrolidin-1-ylsulfonyl)pyridin-2(1H)-one]
dorsal ruffle formation [4]: significantly inhibited | peripheral ruffle formation [4]: occurred in a similar manner to that of the control

O=C(Cn1cc(S(=O)(=O)N2CCCC2)ccc1=O)c1ccc(-c2ccc(C(F)(F)F)cc2)cc1 [TS-16, 1-(2-oxo-2-(4′-(trifluoromethyl)-[1,1′-biphenyl]-4-yl)ethyl)-5-(pyrrolidin-1-ylsulfonyl)pyridin-2(1H)-one]
inhibition of cancer cell (3LL) invasion [5]: significantly excellent inhibitory effect
